Test system: 885724-159-R-J1-PDC KRAS PDC multicell spheroid viability
Experiment: Anticancer human tumor 885724-159-R-J1-PDC patient-derived pancreatic adenocarcinoma cell line growth inhibition [KRAS2]
Conditions: for IC50: curve of first compound; for viability, T/C: stronger effect = lower value
Method in brief: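 KRAS-mutant tumor cells were grown as spheroids with HUVEC endothelial cells and human MSCs as stroma. Targeted agents were tested alone and with KRAS pathway inhibitors. Doses started at or near clinical Cmax, or 10 microM, descending half-log.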

[1] = second compound 0.1 µM, first compound 0.0316 µM
[2] = second compound 0.1 µM, first compound 0.1 µM
[3] = second compound 0.316 µM, first compound 0.0316 µM
[4] = second compound 0.316 µM, first compound 0.1 µM
[5] = second compound 1 µM, first compound 0.0316 µM
[6] = second compound 1 µM, first compound 0.1 µM
[7] = second compound 3.16 µM, first compound 0.0316 µM
[8] = second compound 3.16 µM, first compound 0.1 µM
[9] = second compound 10 µM, first compound 0.0316 µM
[10] = second compound 10 µM, first compound 0.1 µM
[11] = second compound 0.1 µM, first compound 0.316 µM
[12] = second compound 0.1 µM, first compound 1 µM
[13] = second compound 0.1 µM, first compound 3.16 µM
[14] = second compound 0.1 µM, first compound 10 µM
[15] = second compound 0.316 µM, first compound 0.316 µM
[16] = second compound 0.316 µM, first compound 1 µM
[17] = second compound 0.316 µM, first compound 3.16 µM
[18] = second compound 0.316 µM, first compound 10 µM
[19] = second compound 1 µM, first compound 0.316 µM
[20] = second compound 1 µM, first compound 1 µM
[21] = second compound 1 µM, first compound 3.16 µM
[22] = second compound 1 µM, first compound 10 µM
[23] = second compound 3.16 µM, first compound 0.316 µM
[24] = second compound 3.16 µM, first compound 1 µM
[25] = second compound 3.16 µM, first compound 3.16 µM
[26] = second compound 3.16 µM, first compound 10 µM
[27] = second compound 10 µM, first compound 0.316 µM
[28] = second compound 10 µM, first compound 1 µM
[29] = second compound 10 µM, first compound 3.16 µM
[30] = second compound 10 µM, first compound 10 µM
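Note: spheroids exposed to agents for 7 days before readout.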

SMILES | IC50 (second compound 0.1 µM) | IC50 (second compound 0.316 µM) | IC50 (second compound 1 µM) | IC50 (second compound 3.16 µM) | IC50 (second compound 10 µM) | viability, T/C [1] | viability, T/C [2] | viability, T/C [3] | viability, T/C [4] | viability, T/C [5] | viability, T/C [6] | viability, T/C [7] | viability, T/C [8] | viability, T/C [9] | viability, T/C [10] | viability, T/C [11] | viability, T/C [12] | viability, T/C [13] | viability, T/C [14] | viability, T/C [15] | other results
CC(C)n1nc(-c2ccc3oc(N)nc3c2)c2c(N)ncnc21 + CNCc1ccccc1-c1csc(C(C)Nc2nc(C)nc3cc(OC)c(OC)cc23)c1 | > 100 nM | 42 nM | 58.3 nM | < 0.316 nM | < 0.316 nM | 54.6% | 52.4% | 50.2% | 45.6% | 50.2% | 48.5% | 3.15% | 1.32% | 0.23% | 0.34% |  |  |  |  |  | viability, T/C (second compound 0.1 µM, first compound 0.000316 µM): 87%; viability, T/C (second compound 0.1 µM, first compound 0.001 µM): 81.1%; viability, T/C (second compound 0.1 µM, first compound 0.00316 µM): 73.6%; viability, T/C (second compound 0.1 µM, first compound 0.01 µM): 65%; viability, T/C (second compound 0.316 µM, first compound 0.000316 µM): 100%; viability, T/C (second compound 0.316 µM, first compound 0.001 µM): 75.3%; viability, T/C (second compound 0.316 µM, first compound 0.00316 µM): 70.7%; viability, T/C (second compound 0.316 µM, first compound 0.01 µM): 60.6%; viability, T/C (second compound 1 µM, first compound 0.000316 µM): 85.8%; viability, T/C (second compound 1 µM, first compound 0.001 µM): 76.2%; viability, T/C (second compound 1 µM, first compound 0.00316 µM): 69.2%; viability, T/C (second compound 1 µM, first compound 0.01 µM): 60.6%; viability, T/C (second compound 3.16 µM, first compound 0.000316 µM): 2.37%; viability, T/C (second compound 3.16 µM, first compound 0.001 µM): 11.2%; viability, T/C (second compound 3.16 µM, first compound 0.00316 µM): 2.11%; viability, T/C (second compound 3.16 µM, first compound 0.01 µM): 1.36%; viability, T/C (second compound 10 µM, first compound 0.000316 µM): 0.19%; viability, T/C (second compound 10 µM, first compound 0.001 µM): 0.31%; viability, T/C (second compound 10 µM, first compound 0.00316 µM): 0.18%; viability, T/C (second compound 10 µM, first compound 0.01 µM): 0.18%
CC1(C)CCC(CN2CCN(c3ccc(C(=O)NS(=O)(=O)c4ccc(NCC5CCOCC5)c([N+](=O)[O-])c4)c(Oc4cnc5[nH]ccc5c4)c3)CC2)=C(c2ccc(Cl)cc2)C1 + CNCc1ccccc1-c1csc(C(C)Nc2nc(C)nc3cc(OC)c(OC)cc23)c1 | 6720 nM | 5820 nM | 5300 nM | < 31.6 nM | < 31.6 nM | 96.3% | 89.6% | 86.6% | 90.3% | 101% | 93.6% | 1.12% | 0.55% | 0.42% | 1.23% | 88.8% | 88.5% | 82.7% | 32.6% | 85.7% | viability, T/C [16]: 91%; viability, T/C [17]: 82.4%; viability, T/C [18]: 21%; viability, T/C [19]: 89.1%; viability, T/C [20]: 82.3%; viability, T/C [21]: 82.9%; viability, T/C [22]: 12.1%; viability, T/C [23]: 0.55%; viability, T/C [24]: 0.79%; viability, T/C [25]: 0.62%; viability, T/C [26]: 1.03%; viability, T/C [27]: 0.37%; viability, T/C [28]: 0.2%; viability, T/C [29]: 0.17%; viability, T/C [30]: 0.2%
COc1cc(Nc2ncc3c(n2)-c2ccc(Cl)cc2C(c2c(F)cccc2OC)=NC3)ccc1C(=O)O + CNCc1ccccc1-c1csc(C(C)Nc2nc(C)nc3cc(OC)c(OC)cc23)c1 | > 10000 nM | > 10000 nM | > 10000 nM | < 31.6 nM | < 31.6 nM | 102% | 98.5% | 102% | 92.7% | 94.8% | 87.7% | 2.11% | 2.66% | 0.16% | 0.37% | 90.5% | 92.7% | 94.7% | 101% | 89.4% | viability, T/C [16]: 88.5%; viability, T/C [17]: 81%; viability, T/C [18]: 87.7%; viability, T/C [19]: 73.6%; viability, T/C [20]: 81.4%; viability, T/C [21]: 75.6%; viability, T/C [22]: 83.5%; viability, T/C [23]: 1.13%; viability, T/C [24]: 1.16%; viability, T/C [25]: 4.03%; viability, T/C [26]: 12.1%; viability, T/C [27]: 0.43%; viability, T/C [28]: 0.34%; viability, T/C [29]: 0.16%; viability, T/C [30]: 0.35%
COc1cc2nccc(Oc3ccc(NC(=O)C4(C(=O)Nc5ccc(F)cc5)CC4)cc3)c2cc1OC + CNCc1ccccc1-c1csc(C(C)Nc2nc(C)nc3cc(OC)c(OC)cc23)c1 | > 10000 nM | > 10000 nM | 1770 nM | < 31.6 nM | < 31.6 nM | 98.3% | 105% | 96.9% | 101% | 99% | 89.9% | 1.16% | 0.87% | 0.39% | 0.36% | 99.2% | 103% | 69.5% | 61.3% | 95.3% | viability, T/C [16]: 90%; viability, T/C [17]: 61.6%; viability, T/C [18]: 58.7%; viability, T/C [19]: 85.1%; viability, T/C [20]: 86.1%; viability, T/C [21]: 13.3%; viability, T/C [22]: 12.6%; viability, T/C [23]: 1.19%; viability, T/C [24]: 0.42%; viability, T/C [25]: 0.32%; viability, T/C [26]: 0.42%; viability, T/C [27]: 0.17%; viability, T/C [28]: 0.18%; viability, T/C [29]: 0.51%; viability, T/C [30]: 0.47%

Reference: PubChem BioAssay AID1963861 (Molecular Pharmacology Branch, DTP, NCI, 2024)
